Earlier results as cited in patent US20240252489A1, “REPEATED ADMINISTRATION OF DIHYDROERGOTAMINE FOR TREATMENT OF FREQUENT MIGRAINE HEADACHES” (Woodward Specialty LLC, priority 2020, published 2024).

System: patients with frequent migraine headaches
Conditions: 15 min after administration; reported in the literature

## N[C@@H]1c2cccnc2[C@H](OC(=O)N2CCC(n3c(=O)[nH]c4ncccc43)CC2)CC[C@H]1c1cccc(F)c1F [Rimegepant]
  subjects having pain relief: 8%
